# Results from publication PMC3433414, “Oral Administration of the Pimelic Diphenylamide HDAC Inhibitor HDACi 4b Is Unsuitable for Chronic Inhibition of HDAC Activity in the CNS In Vivo” (PLoS ONE, 2012).
# Read-outs that look alike come from different tables or passages of the source.
# Assay: Pharmacokinetics after a single SC or PO dose
# Assay type: in vivo, mouse
# Conditions: for Tmax: read-out: Observed Tmax
# Method: The pharmacokinetic parameters of 4b following dosing with either 5 mg/kg subcutaneous (sc) injection using the soluble formulation, or 4b per oral (po) by gavage (50 mg/kg in suspension) in mice plasma and whole brain homogenate are shown in Fig. 4 and Table 1. Triplicate dose formulation samples were retained and analyzed to ensure an accurate concentration of 4b was injected. The sc dose was calculated to be on average 84.3% of the 5 mg/kg target dose. Therefore, for PK analysis purposes, the dose level for this group was adjusted to 4.22 mg eq./kg based on the reported average dose formulation concentration and calculation parameters were adjusted accordingly. The po gavage dose was accurate at 50 mg/kg (within 104% of the nominal concentration of 10.0 mg/mL), and triplicate sampling from the vial (1 per strata; top, middle, and bottom) confirmed that the suspension dosed was homogeneous.
# All dose formulation procedures were conducted under yellow lighting conditions to protect 4b from light. For the subcutaneous dose group, 2.504 mg 4b was weighed, and transferred into a formulation container. NMP (0.05 mL) was added and the contents were vortexed until 4b was completely dissolved. With continuous vortexing after each addition, PEG400 (0.45 mL), Solutol HS-15 (0.25 mL) and finally 1% Lutrol F68 in RODI water (1.75 mL) followed by sonication for 6 min. The formulation was filtered into a sterile serum vial using a 0.22 µm Millex GV PVDF filter. The resultant formulation was a clear colorless solution.
# For the oral dose group, 4b was weighed (21.138 mg) and transferred to a formulation container. The prepared vehicle (0.5% CMC, 2.11 mL) was transferred into the formulation container, and the contents were stirred and sonicated for a total of 20 min. The resultant formulation was a white homogenous suspension.
# Whole blood samples (225 µL each ∼90 µL plasma) were collected at each time point per animal into tubes containing K2EDTA. Samples were held on wet ice prior to centrifugation. Mice were bled twice; the first bleed was made via the submandibular facial vein, the second bleed was a terminal collection via cardiac puncture. […] The entire volume of the plasma sample was then transferred to individual tubes contained in a 96-well Matrix plate kept chilled in icy water through the entire process until storage at −70°C ±10°C. Collected plasma samples were stored at −70°C ±10°C until transferred to the analytical laboratory frozen on dry ice for bioanalysis.
# The brain of each animal was collected following CO2 euthanasia and terminal bleeding. Each brain was rinsed with saline once removed from the body (to flush away any blood that may have been present), snap frozen in liquid nitrogen, and stored individually in 15 mL conical tubes at −70°C ±10°C.
# Prior to extraction, acetonitrile: water (3∶1, v/v) was added to each tissue sample at a tissue: solvent ratio of 1∶3 (w/v) or 1∶2.536 (w/w), and homogenized using an OMNI tissue homogenizer. The actual volume of extraction buffer or organic solvent added to each tissue was recorded. Samples were kept chilled in icy water through the entire process until processed for 4b extraction. Immediately prior to extraction, tissue homogenates were thoroughly vortexed and aliquoted into 96-well plate(s). The entire process, from tissue homogenization to placing the samples in the tubes for 4b extraction, was conducted within 8 h.
# primary stock solution was prepared at 1 mg eq./mL in DMSO. The matrix calibration standards were prepared at 1, 2, 5, 10, 50, 250, 1000, 2500, 5000 and 10000 ng eq./mL in mouse plasma for plasma, and 0.25, 0.5, 1.25, 2.5, 12.5, 62.5, 250, 625, 1250, 2500 ng eq./mL in tissue homogenate for tissue analysis. Plasma samples were quantified against an external calibration curve generated in control plasma from male C57BL/6NCRL mice. Tissue samples were quantified against an external calibration standard curve generated in control brain tissue from male C57BL/6NCRL mice. […]
# [1] = C57BL/6NCRL, mouse, brain/plasma, po 50 mg eq./kg, mean (standard deviation), N = 3, read-out: B:P
# [2] = C57BL/6NCRL, mouse, brain/plasma, sc 4.22 mg eq./kg, mean (standard deviation), N = 3, read-out: B:P
compound,measurement,setting,value
Nc1ccccc1NC(=O)CCCCCC(=O)Nc1ccccc1 [Compound 4b],"brain concentration in the acute sc pharmacodynamic trial, fold higher than by oral dosing",150 mg/kg,~65 fold
same,AUC(0-inf),"C57BL/6NCRL, mouse, 4.22 mg/kg, mice, SC 4.22 mg eq./kg, plasma",1.63 µM·h
same,half-life,"C57BL/6NCRL, mouse, 4.22 mg/kg, mice, SC 4.22 mg eq./kg, plasma, read-out: T1/2 (converted)",39.6 min
same,AUC(0-inf),"C57BL/6NCRL, mouse, 50 mg/kg, mice, PO 50 mg eq./kg, brain",0.129 µM·h
same,half-life,"C57BL/6NCRL, mouse, 50 mg/kg, mice, PO 50 mg eq./kg, brain, read-out: T1/2 (converted)",182 min
same,AUC(0-inf),"C57BL/6NCRL, mouse, 50 mg/kg, mice, PO 50 mg eq./kg, plasma",1.08 µM·h
same,half-life,"C57BL/6NCRL, mouse, 50 mg/kg, mice, PO 50 mg eq./kg, plasma, read-out: T1/2 (converted)",166 min
same,Cmax,"C57BL/6NCRL, mouse, brain, po, 50 mg/kg, mice, PO 50 mg eq./kg, brain, read-out: Observed Cmax",24 nM
same,Tmax,"C57BL/6NCRL, mouse, brain, po, 50 mg/kg, mice, PO 50 mg eq./kg, brain",60 min
same,Cmax,"C57BL/6NCRL, mouse, brain, sc, 4.22 mg/kg, mice, SC 4.22 mg eq./kg, brain, read-out: Observed Cmax",134 nM
same,Tmax,"C57BL/6NCRL, mouse, brain, sc, 4.22 mg/kg, mice, SC 4.22 mg eq./kg, brain",30 min
same,Kp at 0.5 hr,[1],0.05
same,Kp at 1 hr,[1],0.08
same,Kp at 8 hr,"C57BL/6NCRL, mouse, brain/plasma, po 50 mg eq./kg, 8 hr, mean (standard deviation), N = 3, read-out: B:P",0.2
same,Kp at 0.5 hr,[2],0.09
same,Kp at 1 hr,[2],0.06
same,AUC,"C57BL/6NCRL, mouse, plasma, 50 mg/kg, mice, po 50 mg eq/kg",1.08 µM·h
same,Cmax,"C57BL/6NCRL, mouse, plasma, po, 50 mg/kg, mice, PO 50 mg eq./kg, plasma, read-out: Observed Cmax",1130 nM
same,Tmax,"C57BL/6NCRL, mouse, plasma, po, 50 mg/kg, mice, PO 50 mg eq./kg, plasma",≤ 30 min
same,Cmax,"C57BL/6NCRL, mouse, plasma, po, 50 mg/kg, mice, po 50 mg eq/kg, read-out: plasma Cmax",1300 nM
same,half-life,"C57BL/6NCRL, mouse, plasma, sc, 4.22 mg eq./kg, after subcutaneous dosing, read-out: plasma half-life",~40 min
same,Cmax,"C57BL/6NCRL, mouse, plasma, sc, 4.22 mg/kg, mice, SC 4.22 mg eq./kg, plasma, read-out: Observed Cmax",1340 nM
same,Tmax,"C57BL/6NCRL, mouse, plasma, sc, 4.22 mg/kg, mice, SC 4.22 mg eq./kg, plasma",≤ 30 min
same,Cmax,"C57BL/6NCRL, mouse, plasma, sc, 4.22 mg/kg, mice, sc 4.22 mg/kg, read-out: plasma Cmax",1340 nM
same,AUC,"C57BL/6NCRL, mouse, plasma, mice, sc 4.22 mg/kg",1.63 µM·h
same,estimated brain Cmax,"extrapolated to 150 mg/kg s.c., assuming linear kinetics",4000 to 5000 nM
same,estimated brain Cmax,extrapolated to oral bolus of 150 mg/kg,~72 nM
same,Cmax,"mice, PO 50 mg eq./kg, brain, read-out: Observed Cmax",24.3 nM
same,brain concentration (below LLQ),"po 50 mg/kg, after 8 h",< 2.3 nM eq.
same,plasma concentration (below LLQ),"po 50 mg/kg, after 8 h",< 3.07 nM eq.
same,plasma concentration (below LLQ),"sc 4.22 mg/kg eq, after 4 h",< 3.07 nM eq.
same,brain concentration (below LLQ),"sc 4.22 mg/kg eq, after 8 h",< 2.3 nM eq.
